The test system of one assay is BT-474. The assay can be described thus: relative cell viability vs DMSO control (% of DMSO control); higher = less growth inhibition (higher viability). To be noted: treatment time: 72 h. On the procedure: (§1)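 Breast cancer cell lines (BT-474, HCC1806, SUM-159, SKBR-3) were seeded in triplicate in 96-well plates and treated 24 h after seeding with kinase inhibitors at 8 doses (3 nM to 30 uM). After 72 h, viability was read by CellTiter-Glo luminescence. Values were averaged over replicates and normalised to DMSO-only (0.1%) controls on each plate to give relative viability (% of DMSO).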

Another assay has as its system HCC1806. The description is as above. To be noted: treatment time: 72 h. On the procedure: as §1

Relative cell viability data for four compounds are collected here from the supplement of paper PMC10657565.

± gives the uncertainty stated by the source.

Regarding `CNS(=O)(=O)Nc1nccc(Cc2c(C)c3ccc(Oc4ncccn4)cc3oc2=O)c1F`, the relative cell viability stood at 98.4 ± 1.4 in the assay with BT-474 (0.003 µM); 94.3 ± 1.5 in the assay on BT-474 (0.01 µM); 97.2 ± 2.2 in the assay with BT-474 (0.03 µM); 94.9 ± 5.3 with BT-474 (0.1 µM); 92.8 ± 2.1 with BT-474 (0.3 µM); 87.6 ± 5.1 in the assay with BT-474 (1 µM). For the same compound, the relative cell viability worked out at 87.6 ± 1.8 with BT-474 (3 µM); 41.6 ± 2.2 in the assay with BT-474 (30 µM); 90 ± 7.3 in the assay on HCC1806 (0.003 µM); 86.2 ± 1.2 in the assay with HCC1806 (0.01 µM); 78.5 ± 0.86 in the assay with HCC1806 (0.03 µM); 77.8 ± 2.5 with HCC1806 (0.1 µM). Besides, the relative cell viability is 74.9 ± 3.6 with HCC1806 (0.3 µM), 75.1 ± 5.3 in the assay on HCC1806 (1 µM), 73.7 ± 3.6 with HCC1806 (3 µM) and 72.8 ± 4.9 with HCC1806 (30 µM).

In the case of `Cc1ccc(-n2nc(C(C)(C)C)cc2NC(=O)NCc2cc(F)ccc2Oc2ccc3c(cnn3CCO)c2)cc1` [Pexmetinib], the relative cell viability in the assay with BT-474 (0.003 µM) was found to be 116 ± 3.7; in the assay on BT-474 (0.01 µM), 118 ± 3; with BT-474 (0.03 µM), 119 ± 1.9; in the assay with BT-474 (0.1 µM), 118 ± 4.1; in the assay on BT-474 (0.3 µM), 116 ± 6.1; in the assay on BT-474 (1 µM) it was 110 ± 5. For the same compound, the relative cell viability was 105 ± 3.3 in the assay on BT-474 (3 µM); 28 ± 0.44 with BT-474 (30 µM); 98.7 ± 2.1 in the assay on HCC1806 (0.003 µM); 100 ± 3.3 with HCC1806 (0.01 µM); 102 ± 4.9 in the assay with HCC1806 (0.03 µM); 105 ± 5.4 in the assay with HCC1806 (0.1 µM). Besides, the relative cell viability is 106 ± 4.4 in the assay with HCC1806 (0.3 µM), 102 ± 3.3 in the assay on HCC1806 (1 µM), 88.3 ± 4.1 in the assay on HCC1806 (3 µM) and 12.7 ± 1.3 in the assay with HCC1806 (30 µM).

Turning to `Cc1nc(Nc2n[nH]c3c2CN(C(=O)N[C@H](CN(C)C)c2ccccc2)C3(C)C)c2sccc2n1`, the relative cell viability came out at 96.3 ± 2.5 in the assay on BT-474 (0.003 µM); 92.7 ± 4.8 with BT-474 (0.01 µM); 89.7 ± 3.5 in the assay with BT-474 (0.03 µM); 86.5 ± 2.5 in the assay with BT-474 (0.1 µM); 82.6 ± 5.6 in the assay on BT-474 (0.3 µM); 70 ± 6.6 in the assay with BT-474 (1 µM). The relative cell viability in the assay on BT-474 (3 µM) came to 44 ± 2.3; in the assay with BT-474 (30 µM), 21.3 ± 0.7; with HCC1806 (0.003 µM) it was 66.9 ± 11; in the assay with HCC1806 (0.01 µM), 46.3 ± 6; in the assay on HCC1806 (0.03 µM), 36.2 ± 1.9; in the assay on HCC1806 (0.1 µM), 32.5 ± 1.8. The relative cell viability in the assay on HCC1806 (0.3 µM) stood at 29.6 ± 1.5; in the assay on HCC1806 (1 µM), 19.4 ± 1.2; in the assay with HCC1806 (3 µM), 4.75 ± 0.17; in the assay with HCC1806 (30 µM), 2.8 ± 0.096.

For the compound `C[C@@H](NC(=O)c1ncnc(N)c1Cl)c1ncc(C(=O)Nc2cc(C(F)(F)F)c(Cl)cn2)s1` [MLN-2480], the relative cell viability in the assay with BT-474 (0.003 µM) turned out to be 93.9 ± 2.1; in the assay on BT-474 (0.01 µM), 98.5 ± 6; in the assay with BT-474 (0.03 µM) it was 97.3 ± 2.4; in the assay with BT-474 (0.1 µM), 95.8 ± 4.7; in the assay on BT-474 (0.3 µM), 88.1 ± 6.3; in the assay on BT-474 (1 µM), 77.5 ± 3.7. Moreover, the relative cell viability with BT-474 (3 µM) worked out at 86.6 ± 9.7; in the assay on BT-474 (30 µM), 69.5 ± 7; in the assay with HCC1806 (0.003 µM), 102 ± 1.9; with HCC1806 (0.01 µM) it was 102 ± 1.8; with HCC1806 (0.03 µM), 103 ± 1.8; in the assay on HCC1806 (0.1 µM), 102 ± 2.5. Also, the relative cell viability amounted to 103 ± 2.3 in the assay on HCC1806 (0.3 µM), 100 ± 5 in the assay with HCC1806 (1 µM), 101.2 ± 0.76 in the assay on HCC1806 (3 µM) and 68 ± 4.8 with HCC1806 (30 µM).
